Reference: PubChem BioAssay (NCI)
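In this assay, cells in 96-well plates receive the compound at five concentrations for 48 hours. Endpoints are linearly interpolated between the surrounding concentrations. TGI marks complete inhibition of growth.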

Experiments:
Test in all cases: growth of human tumour cells (NCI), 48 h
NCI-H226 lung = system: NCI-H226 lung
SK-MEL-2 melanoma = system: SK-MEL-2 melanoma
MOLT-4 leukemia = system: MOLT-4 leukemia
K-562 leukemia = system: K-562 leukemia
HT29 colon = system: HT29 colon
786-0 renal = system: 786-0 renal
SF-539 CNS = system: SF-539 CNS
ACHN renal = system: ACHN renal
OVCAR-5 ovarian = system: OVCAR-5 ovarian
OVCAR-4 ovarian = system: OVCAR-4 ovarian
DU-145 prostate = system: DU-145 prostate
A498 renal = system: A498 renal
SK-OV-3 ovarian = system: SK-OV-3 ovarian
HS 578T breast = system: HS 578T breast
HCC-2998 colon = system: HCC-2998 colon
OVCAR-8 ovarian = system: OVCAR-8 ovarian
U251 CNS = system: U251 CNS
SF-268 CNS = system: SF-268 CNS
SW-620 colon = system: SW-620 colon

Measured: TGI

CC(C)(C)OC(=O)CN1CCNCCN(CC(=O)OC(C)(C)C)CC1
not listed: U251 CNS | SF-268 CNS | SW-620 colon
> 100 µM: all other assays above

COc1cc2c(c(OC)c1OC)C(=O)[C@H]1OC(=O)N[C@@H]21
> 100 µM: all assays above

Cc1nnc2sc(-c3ccc(-c4ccccc4Cl)o3)nn12
45.9 µM: SF-539 CNS
83.5 µM: NCI-H226 lung
53.1 µM: OVCAR-8 ovarian
80.1 µM: 786-0 renal
51.1 µM: MOLT-4 leukemia
64.4 µM: HCC-2998 colon
56.8 µM: K-562 leukemia
86.7 µM: SK-MEL-2 melanoma
> 100 µM: all other assays above

O=C1CCc2cc3c(cc21)CC1(Cc2ccccc2C1)C3
66.6 µM: A498 renal
67.7 µM: NCI-H226 lung
> 91.7 µM: ACHN renal
6.37 µM: SK-MEL-2 melanoma
5.38 µM: K-562 leukemia
> 86.9 µM: OVCAR-5 ovarian
14.2 µM: HT29 colon
56.2 µM: SF-539 CNS
12.7 µM: MOLT-4 leukemia
> 70.5 µM: HCC-2998 colon
> 100 µM: all other assays above

O=C1C(=O)N(C2CCCCC2)C(=S)N1C1CCCCC1
> 100 µM: all assays above

C=C(Br)CN(CC(=C)Br)C(C)=O
> 100 µM: all assays above

O=[N+]([O-])/C(C(Cl)=C(Cl)Cl)=C1/OCCS1
41.2 µM: MOLT-4 leukemia
34.4 µM: OVCAR-8 ovarian
36.8 µM: A498 renal
87.6 µM: HS 578T breast
92.6 µM: OVCAR-5 ovarian
77.7 µM: K-562 leukemia
57.2 µM: SK-MEL-2 melanoma
56.1 µM: NCI-H226 lung
38.6 µM: 786-0 renal
71.1 µM: SF-268 CNS
42.2 µM: ACHN renal
42.9 µM: SF-539 CNS
not listed: SW-620 colon
> 100 µM: all other assays above

Clc1ncnc2c1nc(C#Cc1ccccc1)n2Cc1ccccc1
27 µM: HCC-2998 colon
34.9 µM: U251 CNS
29 µM: DU-145 prostate
72.2 µM: HT29 colon
35.8 µM: OVCAR-4 ovarian
98.4 µM: SK-MEL-2 melanoma
53.9 µM: OVCAR-8 ovarian
83.8 µM: SF-539 CNS
> 100 µM: all other assays above

CC1CC[C@@]2(OC1)OC1C[C@H]3[C@@H]4CC[C@H]5CC(OC6OC(CO)C(OC7OC(CO)C(O)C(O)C7O)C(O)C6O)CCC5(C)[C@H]4CCC3(C)C1[C@@H]2C (stereo not given in full)
42.6 µM: K-562 leukemia
17.8 µM: SW-620 colon
17.4 µM: U251 CNS
14.5 µM: ACHN renal
15.8 µM: HT29 colon
16.5 µM: NCI-H226 lung
18.1 µM: SF-268 CNS
15.3 µM: SK-MEL-2 melanoma
18.7 µM: SK-OV-3 ovarian
12.9 µM: HCC-2998 colon
16.3 µM: SF-539 CNS | A498 renal
16.7 µM: OVCAR-8 ovarian
18 µM: DU-145 prostate
17.2 µM: OVCAR-5 ovarian
25.4 µM: MOLT-4 leukemia
17.1 µM: OVCAR-4 ovarian | HS 578T breast
15.6 µM: 786-0 renal

Nc1nnc(-c2ccco2)c(-c2ccco2)n1
> 100 µM: all assays above

NCCCc1ccc2oc3ccccc3c2c1
32.1 µM: ACHN renal
38.3 µM: OVCAR-4 ovarian
47.7 µM: HS 578T breast
30.5 µM: MOLT-4 leukemia
35.5 µM: NCI-H226 lung
26.2 µM: OVCAR-5 ovarian
28.3 µM: 786-0 renal
38.2 µM: SK-MEL-2 melanoma
33.4 µM: U251 CNS
30.6 µM: DU-145 prostate
39.1 µM: SF-268 CNS
50.3 µM: SW-620 colon
30.2 µM: A498 renal
31.3 µM: SK-OV-3 ovarian
26 µM: HT29 colon
69.4 µM: K-562 leukemia
22.5 µM: HCC-2998 colon
57 µM: OVCAR-8 ovarian
36.9 µM: SF-539 CNS

CSc1c(C(=O)Nc2ccc(Cl)cc2)c(N)[nH]c(=O)c1C#N
> 91.9 µM: MOLT-4 leukemia
68.9 µM: SF-539 CNS
> 89.2 µM: OVCAR-5 ovarian
> 90.2 µM: HCC-2998 colon
> 88.7 µM: OVCAR-8 ovarian
32.2 µM: SK-MEL-2 melanoma
62.1 µM: A498 renal
> 66.4 µM: HT29 colon
> 71.4 µM: U251 CNS
77.9 µM: 786-0 renal
> 100 µM: all other assays above

Cc1ccc(-c2n[nH]c(=O)[nH]2)cc1
not listed: SK-OV-3 ovarian
> 100 µM: all other assays above

N=c1oc2ccc(Cl)cc2cc1C(=O)Nc1ccccc1
> 70.2 µM: SK-OV-3 ovarian
> 93 µM: U251 CNS
> 59.6 µM: HS 578T breast
> 100 µM: all other assays above

O=C1C=CC(=O)c2c(O)c(N[C@@H](Cc3ccccc3)C(=O)OCc3ccccc3)c(Cl)c(O)c21
8.86 µM: SF-539 CNS
not listed: MOLT-4 leukemia | K-562 leukemia
> 10 µM: all other assays above

CCc1cc2c(cc1CCCC(=O)O)CC1(Cc3ccc(C(=O)O)cc3C1)C2 (stereo not given)
> 100 µM: all assays above

NC1=Nc2ccccc2Sc2nnc(-c3ccc(Cl)cc3)n21
80.6 µM: U251 CNS
72.2 µM: MOLT-4 leukemia
82.6 µM: 786-0 renal
95.3 µM: SF-268 CNS
35.7 µM: K-562 leukemia
> 100 µM: all other assays above

CO[C@@H](c1ccccc1)[C@H](O)[C@](O)(c1ccccc1)P(=O)(OC)OC
> 100 µM: all assays above

O=[N+]([O-])c1ccc(N=NN2CCCC2)cc1
20.6 µM: HCC-2998 colon
not listed: HT29 colon
> 100 µM: all other assays above

CN(N)/N=N/c1nc[nH]c1C(N)=O
8.05 µM: MOLT-4 leukemia
> 42.2 µM: HCC-2998 colon
> 100 µM: all other assays above

O=C(O)c1cc2c(s1)C(=O)c1sccc1C2=O
14.6 µM: OVCAR-8 ovarian
16.1 µM: OVCAR-4 ovarian
25.1 µM: ACHN renal
23.4 µM: OVCAR-5 ovarian
19 µM: HT29 colon
6.03 µM: SK-MEL-2 melanoma
5.85 µM: DU-145 prostate
16.4 µM: SF-268 CNS
33.6 µM: HCC-2998 colon
41.4 µM: SK-OV-3 ovarian
28.6 µM: MOLT-4 leukemia
5.28 µM: SW-620 colon
15.2 µM: K-562 leukemia
15.6 µM: U251 CNS
37.1 µM: NCI-H226 lung
3.85 µM: SF-539 CNS
5.91 µM: HS 578T breast
18.1 µM: 786-0 renal
31.2 µM: A498 renal

O=C(O)C/C(=C\c1ccccc1)C(=O)O
93.5 µM: K-562 leukemia
> 100 µM: all other assays above
